Laboratory results taken from a melting point compilation (Tetko et al.; mined from patent text by program, amines drawn as free bases though some values may be those of a salt).

Structure (SMILES) | melting point
COC(=O)NC1CCc2ccc(Cl)cc2C1 (stereo not given) | 99 to 101 °C
COc1ccc(C2=CCN(Cc3c[nH]c4ncccc34)CC2)cc1 | 202 to 204 °C
CCCCCCCCCCCCCCOc1ccc2c(C)c(C(=O)O)oc2c1 | 105 to 108 °C
CC1CC(=O)NN=C1c1ccc(NCCCN)c([N+](=O)[O-])c1 (stereo not given) | 154 to 156 °C
O=S(=O)(Oc1cc(I)c(I)cc1OS(=O)(=O)C(F)(F)F)C(F)(F)F | 46.5 to 47.7 °C
COc1ccc(O)cc1[N+](=O)[O-] | 78 to 80 °C
C/C(=C(\C#N)C(N)=S)N1CCCSCC1 | 138 to 142 °C
CC(C)(C)c1cc(CCCO)cc(C(C)(C)C)c1O | 67.5 to 69 °C
Cc1[nH]c(C(=O)SCC(=O)O)nc1-c1cc(C(C)(C)C)c(O)c(C(C)(C)C)c1 | 252 to 254 °C
COc1cc(N)c(S(C)(=O)=O)cc1C(=O)O | 178 to 180 °C
OCc1csc(NC2CCCCC2)n1 | 118 to 120 °C
CC1Cc2cc(O)ccc2C2C(F)CC3(C)CC(O)CC3C12 (stereo not given) | 239 to 240 °C
S=C(SCc1ccccc1)N1CC2CCC(CC2)C1 | 98 to 99 °C
CCOC(=O)C=Cc1ccc2c(c1)c1cc(C=CC(=O)OCC)ccc1n2CC | 164 to 168 °C
CC1(C)C(C=C(Br)Br)C1C(=O)O (stereo not given) | 116 to 117 °C
CCOC(=O)Cc1cccc(Cc2nc3cc(F)cc(F)c3s2)c1 | 66 to 67 °C
COc1ccc(C(=O)CCCCCN2CCC(CNC(=O)c3cc(Cl)c(N)cc3OC)CC2)cc1Cl | 104 to 106 °C
CCNCC1(C)CN(c2c(F)cc3c(=O)c(C(=O)O)cn4c3c2OC[C@H]4C)C1 | 242 to 245 °C
Cc1cccc(C)c1N(C(C)C(=O)NN)S(C)(=O)=O (stereo not given) | 115 to 118 °C
CC(C)NC1=NS(=O)(=O)c2ccc(C3CCCCC3)cc2N1 | 131 to 133 °C
N#CC=C1CCN(c2ccc(N3C[C@H](CNC(=S)CO)OC3=O)cc2F)CC1 | 102 to 105 °C

Structure (SMILES) | melting point
COc1cc2ncc(OC3CCCCC3)nc2cc1OC1CCCCC1 | 75 to 78 °C
CN1CCN(CC(=O)C2CC3c4cccc5[nH]cc(c45)CC3N(C)C2)CC1 (stereo not given) | 198 to 202 °C
CNC(=O)Oc1c(OC)cc(OC)c2ccccc12 | 131 to 133 °C
CCOc1ccc(NC(=O)OC(C)(C)C)c(C)c1 | 55 to 56 °C
CC(C)(C)NCC(O)COc1ccc(-c2nc(C(F)(F)F)c[nH]2)cc1 (stereo not given) | 186 °C
Cc1ncc(I)nc1C | 51 to 54 °C
CCC(CC)N(O)C(=O)NCCCC(C)CNC(=O)N(O)C(CC)CC (stereo not given) | 124 to 125 °C
CC(=CC(=O)c1cccc(C(F)(F)F)c1)N(C)C | 69 to 70 °C
CCCc1ccc(C2c3c(C)cc(C)c(C)c3OC2(C)C)cc1 (stereo not given) | 69 to 70 °C
Cc1cc(Oc2ccc([N+](=O)[O-])c(Cl)c2)n[nH]1 | 91 to 93 °C
CC(C)(C)c1cc(I)c2oncc2c1 | 106 to 109 °C
CCC1(O)CC(=O)OCc2c1cc1n(c2=O)Cc2c-1nc1ccccc1c2-c1ccc(C)cc1 (stereo not given) | > 280 °C
OCCOc1ccsc1 | 38 to 39 °C
COC(=O)c1c(C)[nH]c(C)c1C1=CC(=O)c2cccc(O)c2C1=O | 98 to 99 °C
c1ccc(CC2CNCCN2)cc1 (racemic) | 80 to 81 °C
CC1(C)OC(=O)C(C=Nc2cncc(Br)c2)C(=O)O1 | 200 to 202 °C
COC(=O)/C=C/c1ccc(N)nc1 | 173 to 175 °C
CCn1cc(CS(C)(=O)=O)c(=O)c2ccccc21 | 162 to 164 °C
COc1ccc(CSC2(C(=O)O)CCCCC2)cc1 | 98 °C
C=C(Cl)CS(=O)(=O)NC(=O)c1nc(OC)cc(OC)n1 | 125 to 130 °C
CCCCc1ccc(CC(N)C(=O)O)cc1 (stereo not given) | 218 to 223 °C

Second part, the molecule after the results:

melting point | Structure (SMILES)
192 to 194 °C | Cc1cn(-c2cc(NC(=O)c3ccc(C)c(C#Cc4ccc(NC(C)C)nn4)c3)cc(C(F)(F)F)c2)cn1
187 to 190 °C | Fc1ccc2[nH]c(CC3CCN(CC4CCc5ccccc5O4)CC3)cc2c1 (stereo not given)
144 to 147 °C | Cc1ccc2c(c1)N(CC(=O)c1ccccc1C)C(=O)C(NC(=O)Nc1cccc(C(=O)O)c1)CN2C(=O)OCc1ccccc1 (stereo not given)
103 to 105 °C | O=c1c(Cc2ccccc2)c2n(c(=O)n1CCCCCl)CCCS2(=O)=O
> 290 °C | Cc1ccccc1-c1coc2cc(O)cc(Cl)c2c1=O
67 to 69 °C | COC[C@H](Cc1ccccc1)Nc1nc(C)nc2c1nnn2-c1ccc(C(C)C)cc1Br
150 °C | COc1cccc(Oc2c(NS(=O)(=O)c3ccc(C(C)(C)C)cc3)ncnc2SCCO)c1
142 to 144 °C | Cc1cc2ncc(-c3ccsc3)nc2cc1C
137 °C | CCOC(=O)C1=C(N=CN(C)C)NC(C)=C(C(=O)OC)C1c1ccccc1Cl (stereo not given)
237 to 239 °C | COc1cc(C=c2[nH]c(=O)c(=Cc3ccc(OCc4ccccc4)cn3)[nH]c2=O)cc(OC)c1
260 to 263 °C | CNC(=O)c1cn(C)c2cc(Cl)ccc2c1=O
215 to 217 °C | O=C(O)c1cnc(-c2ccccc2)c2ccccc12
111 to 112 °C | Nc1nc(Cl)c2ncn(COCCOCCOC(=O)c3ccccc3)c2n1
236 °C | CN1CCC(C(=O)Nc2cccc(-c3ccnc4c(C(=O)c5cccs5)cnn34)c2)CC1
162 to 165 °C | O=C(Nc1ccc(-c2ccnc3c(C(=O)c4cccs4)cnn23)s1)c1ccccc1
133 °C | O=C(NCCc1ncc(Cl)cc1Cl)c1ccccc1I
162 to 165 °C | Cn1nc2ccccc2c1C(=O)NC1CCN(CCCc2ccc(F)cc2)CC1
229 to 234 °C | COc1cc(OC)nc(OC(C(=O)O)C(C)(c2ccccc2)c2ccccc2)n1 (stereo not given)
150 to 151 °C | O=C(O)CCn1c(=O)c2ccccc2n(CCCN2CCC(OC(c3ccccc3)c3ccccc3)CC2)c1=O
147 to 148 °C | Ic1cnc2c(c1)N(Cc1ccccc1)CCN2

melting point | Structure (SMILES)
196 to 197 °C | Cc1[nH]n(C(C)(C)C)c2nc(Cc3ccccc3)nc(=O)c1-2
144 to 150 °C | COc1cc(Nc2nccc(Nc3ccc(CC(=O)O)cc3)n2)cc(OC)c1OC
> 300 °C | O=C(c1ccccc1C(c1ccc(O)cc1)c1ccc(O)cc1)N(C1CCCCC1)C1CCCCC1
101 °C | CC(C)(C)OCCOc1cc(NC(=O)OC(C)(C)C)c(NC(=O)CC(=O)c2cccc(-n3ccnc3)c2)cc1-c1ccc(F)cc1
88 to 96 °C | O=C1CCC(c2ccc(NN=C(CO)c3ccccc3)cc2)=NN1
204 to 207 °C | O=C1N(Cc2ccc(C(F)(F)F)nc2)c2ccccc2C12COc1cc3c(cc12)OCCO3 (stereo not given)
80 to 81 °C | COC(=O)[C@H](O)CCCc1ccc(OCc2nc(-c3ccco3)oc2C)c(OC)c1
154 °C | CS(=O)(=O)c1ccc(-c2cc3n(c2-c2ccc(F)cc2)CCC3)cc1
105 to 106 °C | CC1(C)OC(c2ccc(S(C)(=O)=O)c(F)c2)=C(c2cccc(Cl)c2)C1=S
202 °C | O=C(Nc1ccc(Cl)c(Cl)c1)c1cc(C(F)(F)F)cc([N+](=O)[O-])c1Cl
227 to 235 °C | O=C(Cc1ccc2ccccc2c1)Nc1cc(-c2ccncc2)[nH]n1
139 °C | CCOC(=O)C1=C(C)N=C(N)C(C)(C(=O)OCC)C1c1ccccc1 (stereo not given)
169 to 171 °C | O=C(CCc1ccccn1)Nc1cc(N2CC(c3ccccc3)OC2=O)ccn1 (stereo not given)
150 to 154 °C | CC(C)C[C@H](NC(=O)c1ccccc1)C(=O)N[C@@H](C(C)C)[C@@H](O)c1c(-c2ccccc2)c1=O
184 to 186 °C | Cc1cc(C)cc(NC(=O)Cc2ccc(OC3(C(=O)O)CCCC3C)cc2)c1 (stereo not given)
197 to 207 °C | COc1ccc(C(=CC(=O)N2CCOCC2)c2ccc(NC(=O)c3ccc(Cl)cc3)cc2)cc1OC
156 to 158 °C | NC(=O)c1ccc(Nc2nc(OCC3CCCCC3)c3nc[nH]c3n2)cc1
130 to 132 °C | O=C(Nc1ccccc1)N(Cc1ccc(Br)cc1)C1CCCC1
176 to 179 °C | CCOC(=O)C1=C(c2ccc(-c3ocnc3C)cc2)NC(C)=C(C(=O)Nc2ccccn2)C1c1ccccc1Cl (stereo not given)
198 to 200 °C | O=c1c2ccccc2[nH]n1Cc1cccc2ccccc12

melting point | Structure (SMILES)
155 to 157 °C | O=c1[nH]c2ccccc2n1C1CCN(CC(O)CSc2ccc(F)cc2)CC1 (stereo not given)
202 °C | O=C(O)Cc1cc(C=Cc2ccccc2)ccc1O
102 to 103 °C | O=[N+]([O-])c1ccc2c(cnn2Cc2ccccc2[N+](=O)[O-])c1
114 to 118 °C | O=C1c2cccc(O)c2CN1C1CCN(CCC(c2ccccc2)c2ccccc2)CC1
127 to 129 °C | C#CCn1c(=O)cc(-c2ccccc2)c2cccnc21
174 to 176 °C | Cc1ccccc1-c1ccc(C(=O)N2Cc3ccc(C(=O)NCCc4cccc(Cl)c4)n3Cc3ccccc32)cc1C
126 to 127 °C | CCOC(=O)C(=CNc1nccs1)C(=O)c1c(Cl)cc(Cl)nc1Cl
120 to 122 °C | C[C@@H]1Cc2cc(N3C[C@H](CN)OC3=O)ccc2N1C(=O)OCc1ccccc1
91 to 92 °C | COc1cc2c(cc1Cl)CCN(C)C[C@H]2c1ccccc1
119 °C | CSc1ccc(-c2nn(CC=Cc3ccc(Cl)cc3)c(=O)cc2-c2ccc(F)cc2)cc1
106 to 108 °C | CN(C)C1CCN(c2nccc(Oc3ccc(NC(=O)c4cc(F)cc(N5CCOCC5)c4)c4ccccc34)n2)C1 (stereo not given)
112 to 114 °C | C=C(COCc1ccccc1)C(O)C(NC=O)C(=O)OCC (stereo not given)
> 250 °C | CCc1nn(-c2ccc(C(=N)N)cc2)c(=O)n1-c1ccc(CCC(=O)OC(C)C)cc1
54 to 57 °C | Cc1oc(-c2ccccc2)nc1COc1ccc(CON=C(CCCCCCC(=O)O)c2ccc(Cl)cc2)cc1
185 °C | Cc1nc2c(o1)CCc1ccccc1C2=Cc1cccc(NS(C)(=O)=O)c1
154 °C | O=C(O)C(=NO)C(c1ccc(OCc2ccccn2)cc1)c1ccc(OCc2ccccn2)cc1
272 to 273 °C | O=C(Nc1ccc(C(=O)N2CCCC(=NO)c3ccccc32)cc1)c1cc(Cl)cc(Cl)c1
181 to 182 °C | O=C(/C=C/c1ccn(S(=O)(=O)c2ccc(-c3ccccn3)s2)c1)NO
